Reference: paper PMC5452050 (ACS Omega, 2017)
Where a chain is given by its changes, count along the chain named.

Columns and labels:
Test in all cases: Kd determination
Assay type in all cases: binding
[1] = biological target: T1, FLT3 (D835H) (Homo sapiens, UniProt P36888, D835H)
T1 sequence (P36888 27-993 D835H): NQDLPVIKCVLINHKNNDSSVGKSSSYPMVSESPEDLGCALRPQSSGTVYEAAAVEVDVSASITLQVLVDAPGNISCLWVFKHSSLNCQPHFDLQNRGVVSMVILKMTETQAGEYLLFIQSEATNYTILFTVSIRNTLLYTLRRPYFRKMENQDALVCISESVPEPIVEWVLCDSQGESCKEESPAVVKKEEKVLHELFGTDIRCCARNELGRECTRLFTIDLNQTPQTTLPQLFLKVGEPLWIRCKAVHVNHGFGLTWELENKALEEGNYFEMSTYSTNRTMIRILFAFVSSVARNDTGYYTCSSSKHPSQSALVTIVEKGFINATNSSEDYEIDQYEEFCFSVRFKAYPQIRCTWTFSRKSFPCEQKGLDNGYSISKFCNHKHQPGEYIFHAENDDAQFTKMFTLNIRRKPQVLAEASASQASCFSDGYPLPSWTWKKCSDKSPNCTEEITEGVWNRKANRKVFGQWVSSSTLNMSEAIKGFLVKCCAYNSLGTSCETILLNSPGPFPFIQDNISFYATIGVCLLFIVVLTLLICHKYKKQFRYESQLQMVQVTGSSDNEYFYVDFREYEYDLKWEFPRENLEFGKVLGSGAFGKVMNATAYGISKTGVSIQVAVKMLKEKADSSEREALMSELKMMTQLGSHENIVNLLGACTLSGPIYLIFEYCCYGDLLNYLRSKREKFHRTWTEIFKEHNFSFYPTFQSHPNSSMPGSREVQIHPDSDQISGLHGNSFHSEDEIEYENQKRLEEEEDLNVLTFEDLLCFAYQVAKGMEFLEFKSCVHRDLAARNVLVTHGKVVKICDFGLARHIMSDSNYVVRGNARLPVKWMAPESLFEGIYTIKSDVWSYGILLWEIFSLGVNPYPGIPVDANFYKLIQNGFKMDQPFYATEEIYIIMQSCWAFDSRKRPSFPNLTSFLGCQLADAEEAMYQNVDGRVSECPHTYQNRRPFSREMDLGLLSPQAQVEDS

[2] = biological target: T2, FLT3 (D835Y) (Homo sapiens, UniProt P36888, D835Y)
T2 sequence (P36888 27-993 D835Y): T1 sequence (P36888 27-993 D835H) with H809Y

[3] = biological target: T3, FLT3 (ITD, F691L) (Homo sapiens, UniProt P36888, F691L/ITD)
T3 sequence (P36888 564-993 F691L): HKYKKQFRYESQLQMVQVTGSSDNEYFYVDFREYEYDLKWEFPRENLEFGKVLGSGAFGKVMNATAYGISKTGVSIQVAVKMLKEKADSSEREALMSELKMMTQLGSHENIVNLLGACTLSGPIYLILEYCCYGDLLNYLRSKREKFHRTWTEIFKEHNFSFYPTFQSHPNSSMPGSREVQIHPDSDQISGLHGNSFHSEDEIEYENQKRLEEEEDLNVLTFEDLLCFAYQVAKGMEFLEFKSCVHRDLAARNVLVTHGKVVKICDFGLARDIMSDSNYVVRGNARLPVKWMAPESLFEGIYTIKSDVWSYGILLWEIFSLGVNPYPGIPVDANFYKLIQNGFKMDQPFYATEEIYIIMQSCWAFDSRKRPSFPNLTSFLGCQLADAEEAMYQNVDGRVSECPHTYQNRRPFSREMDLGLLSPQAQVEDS

[4] = biological target: T4, FLT3-autoinhibited (Homo sapiens, UniProt P36888)
T4 sequence (P36888 564-993 limits assumed): T3 sequence (P36888 564-993 F691L) with L128F

`c1cncc(-c2cccc(Nc3nccc(NC4CCCCC4)n3)c2)c1` [Compound 1, N^4-Cyclohexyl-N^2-(3-(pyridin-3-yl)phenyl)pyrimidine-2,4-diamine] gave a Kd [1] of 22 nM, a Kd [2] of 13 nM and a Kd [3] of 270 nM. It also gave a Kd [4] of 1100 nM.
Work on `CC(C)Nc1ccnc(Nc2cccc(-c3cccnc3)c2)n1` [Compound 5e, N^4-Isopropyl-N^2-(3-(pyridin-3-yl)phenyl)pyrimidine-2,4-diamine] yielded a Kd [1] of 1.2 nM, a Kd [2] of 0.59 nM and a Kd [3] of 11 nM. The Kd [4] was 78 nM.
With `CC(C)Nc1ccnc(Nc2ccccc2-c2ccccc2)n1` [Compound 6a, N^2-([1,1′-Biphenyl]-2-yl)-N^4-isopropylpyrimidine-2,4-diamine] the Kd [1] was > 10000 nM, the Kd [2] was > 10000 nM and the Kd [3] was > 10000 nM. For the same compound, the Kd [4] was > 10000 nM.
